Five molecules from US20250387410A1, “TREATMENT OF ANTI-VEGF REFRACTORY OPHTHALMIC RETINAL EYE CONDITIONS” (Eye Co Pty Ltd., priority 2022, published 2025) can be followed below.

Entries after “also recorded” stand apart in the source; their conditions may differ.

The test system of one series is 661W cells. In words: MTT assay, cell viability of 661W cells. In kind it is cell-based, human. The source says: (§1) The immortalised retinal cells used were as follows: MIO-M1 cells (Muller cell-derived; Müller 1 Moorefields, Institute of Ophthalmology, Dr A. Limb, Institute of Ophthalmology, University College, UK); ARPE19 (RPE-derived; ATCC CRL-2302, American Tissue Culture Collection, VA, USA); and 661W cells (photoreceptor-like derived; kindly gifted by Dr Muayyad R. Al-Ubaidi, Department of Cell Biology, University of Oklahoma Health Sciences Centre, Oklahoma City, OK, USA). Cells were authenticated and validated from Cell Bank Australia.
(§2) The immortalised retinal cell lines MIO-M1, 661W and ARPE19 were used to undertake the MTT assay to assess cell metabolic activity, based on the cell's availability of NAPDH. Treatments included exposure to one of FA (10-0.01 μg/μl, provided by Professor Ben Boyd, Monash University, Australia), TA (10-0.01 μg/p, Honeywell, USA) and Dexamethasone (10-0.0001 μg/μl, Sigma-Aldrich, MO, USA). All corticosteroids used in vitro were dissolved in 20% dimethyl sulfoxide (DMSO) (Sigma-Aldrich, MO, USA) and ultrapure endotoxin 0.1M PBS (Thermo Fisher Scientific, MA, USA). At the 12-hour time point following addition of the corticosteroid, 10p of MTT reagent (Roche, Switzerland) was added to each well. To protect against light, plates were wrapped in foil and stored in the dark at 37° C. for 4 hours at 5.0% CO2. Cells were monitored using a bright field Zeiss Axiovert 200 inverted microscope (Carl Zeiss Meditec, Dublin, CA. USA) for formation of insoluble purple formazan precipitate crystals in viable cells. Subsequently 100p of MTT solubilisation solution was added and once again incubated in darkness at 37° C., 5.0% CO2 for 24 hours. Quantification of the MTT assay was performed by measuring the absorbance at 570 nm using Tecan Infinite® 200 PRO (Tecan, Mannedorf, Switzerland).
Background: Tetrazolium dyes change colour on reduction, which living cells bring about.

A further series deals with MIO-M1 cells. In words: MTT assay, cell viability of MIO-M1 cells. In kind it is cell-based, human.
Excerpt: as §1, §2

The subject of another series is ARPE19 cells. The experiment in a line: MTT assay, cell viability of ARPE19 cells. The format is cell-based, human.
Excerpt: as §1, §2

The test system of series [1] is C57BL/6J mice, photo-oxidative damage (PD). In words: Photo-oxidative damage (PD) model of retinal degeneration, intravitreal injection. The format is in vivo, mouse. The source says: All experiments conducted were in accordance with the ARVO Statement for Use of Animals in Ophthalmic and Vision Research, and with approval from the ANU Animal Experimentation Ethics Committee (AEEC, protocol #A2014/56). C57BL/6J mice aged 60 post-natal days were used in this study. Animals were born, reared and held under dim light conditions (5 lux) prior to photo-oxidative damage.
In vivo cross-sectional and fundus images of the mouse retina were acquired using Optical Coherence Tomography (OCT).
Intravitreal injections were performed on C57BL/6J mice aged 60 post-natal days. Treatments included exposure to FA or TA dissolved in Suspension (comprised of 0.5% w/v carboxymethyl cellulose and 0.4% v/v Tween 80). The final concentration of drug in the vitreous chamber is estimated to be as 1 mg/ml.
Age-matched C57BL/6J mice (60 post-natal days) were exposed to continuous 100K lux white LED light for 5 days with access to food and water ad libitum. During this time, 1% atropine sulphate (Minims 1% atropine sulphate eye drops; Bausch and Lomb, USA) was administered to both eyes twice daily to dilate the pupils. Animals were subsequently euthanised with carbon dioxide (CO2).
Electroretinography (ERG) was used to assess the retinal function response of rodents to full-field flash stimuli under scotopic conditions. Dim-reared control and photo-oxidative damaged animals were used, using known methods.
Animals were dark-adapted overnight before the commencement of ERG experiments. Animals were anaesthetised as previously described, and all retinal recordings were undertaken in a dark room with minimal red light source.
Terminal deoxynucleotidyl transferase (Tdt) dUTP nick end labelling (TUNEL) is an established technique used to detect apoptotic and necrotic cells.
The retina was evenly divided into 8 quadrants. Each quadrant was viewed using a confocal microscope (LSM 5, Zeiss, Germany) and TUNEL^+ and IBA1^+ cells were identified and counted. Data were graphed and analysed using Prism 6 software (GraphPad Software, CA, USA).

Series [2] relates to Il-1b-stimulated MIO-M1 cells. In words: Co-incubation with selective receptor antagonists in Il-1b-stimulated MIO-M1 cells. The format is cell-based, human. Particulars: co-incubation with FA + IL-1β, compared to Il1b and FA alone. The protocol: FIG. 3 Contribution of glucocorticoid and mineralocorticoid receptor signalling to the anti-inflammatory effect of FA in vitro.
IL-1β and TNF-α were administered to MIO-M1 cells to initiate an inflammatory response in order to test the anti-inflammatory properties of the selected corticosteroids. MIO-M1 cells were grown to a cell density of 50,000 cells per well in a 24 well plate using growth media and foetal bovine serum as described (Section 2.1.1). MIO-M1 cells were challenged with either 1 ng/μl of IL-1β or TNF-α (R&D Systems, MN, USA). Experimental wells were treated with either 1 μg/μl FA, TA or Dexamethasone. Twelve hours post addition, growth medium was removed from each well and replaced with 860 μl of TRIzol (Thermo Fisher Scientific, MA, USA), agitated approximately 20 times and then placed in a clean 1.5 ml Eppendorf tube to extract ribonucleic acid (RNA).
Following purification of RNA, cDNA was synthesized using the Bioline Tetro kit (Bioline, Australia) as per the manufacturer's instructions. Quantitative Real Time Polymerase Chain Reaction (QRT-PCR) was undertaken to profile gene expression changes in animal and cell culture samples. TaqMan hydrolysis probes (Applied Biosystems, USA) and Gene Expression Master Mix (Applied Biosystems, USA) were used. A clear 384 well plate (Applied Biosystems, USA) was used with each biological sample plated in duplicate. A reaction mixture per sample was set up and included 0.5 μl cDNA, 4 μl Rnase Free Water, 5 μl Gene Expression Master Mix and 0.5 μl Taqman Primer Probe (Thermo Fisher Scientific), as listed in Table 2.5. The amplification of each sample was undertaken using a QuantStudio 12K Flex QRT-PCR machine (Applied Biosystems, USA). GAPDH was used as the reference gene using the comparative cycle threshold (Ct) method (ΔΔCt), as it is known not to change expression following retinal photo-oxidative damage. Data was analysed using the QuantStudio 12K Flex Software (Applied Biosystems, USA).

Setting [3] is: 10 ug/uL, compared to DMSO-only group.
The mark [4] stands for this setting: 10-0.01 μg/μl, 12 h, compared to DMSO-only group.

On to `CC1(C)O[C@@H]2C[C@H]3[C@@H]4CCC5=CC(=O)C=C[C@]5(C)[C@@]4(F)[C@@H](O)C[C@]3(C)[C@]2(C(=O)CO)O1` [TA, triamcinolone acetonide], for which the “viability of 661W cells at 1 μg/μl” value in the series with 661W cells (1 μg/μl) is on record as “does not significantly alter cell viability”. For the same molecule, in the series with 661W cells (setting [3]), the “viability of 661W cells at the highest concentration” value is given as “slight reduction”. Further, in the series with 661W cells (setting [4]), the “viability of 661W cells (MTT assay)” value is listed as “do not induce toxicity; also recorded: did not have significant effect”. In addition, in the series with MIO-M1 cells (1 μg/μl), the “viability of MIO-M1 cells at 1 μg/μl” value is on record as “does not significantly alter cell viability”. In addition, the “viability of MIO-M1 cells at the highest concentration” value in the series with MIO-M1 cells (setting [3]) is given as “slight reduction”. In the series with MIO-M1 cells (setting [4]), the “viability of MIO-M1 cells (MTT assay)” value was “do not induce toxicity; also recorded: did not have significant effect”. For the same molecule, in the series on ARPE19 cells (1 μg/μl), the “viability of ARPE19 cells at 1 μg/μl” value is “does not significantly alter cell viability”. Further, the “viability of ARPE-19 cells (MTT assay)” value in the series with ARPE19 cells (setting [4]) was “do not induce toxicity; also recorded: did not have significant effect”. The “a-wave and b-wave ERG responses” value in series [1] (5 days PD, intravitreal, scotopic, versus controls) is “indistinguishable from PD controls/untreated animals”. In addition, the “photoreceptor survival in PD” value in series [1] (intravitreal injection, mice) is reported as “no significant effect”.
With `CCC[C@@H]1CC2=CC(=O)CC[C@]2(C)[C@H]2CC[C@@]3(C)[C@@H](CC[C@@]3(O)CCC(=O)[O-])[C@H]12.[K+]` [RU28318], in series [2], the “effect of receptor antagonist on FA-mediated suppression of Ccl2, Il-6, and Il-8” value (“effect of receptor antagonist” below) is reported as “did not significantly alter”.
Regarding `C[C@]12CC[C@@H]3c4ccc(O)cc4C[C@@H](CCCCCCCCC[S+]([O-])CCCC(F)(F)C(F)(F)F)[C@H]3[C@@H]1CC[C@@H]2O` (some centres unmarked) [ICI182780], the “effect of receptor antagonist” value in series [2] is reported as “did not alter”.
Turning to `CC#C[C@]1(O)CC[C@H]2[C@@H]3CCC4=CC(=O)CCC4=C3[C@@H](c3ccc(N(C)C)cc3)C[C@@]21C` [RU486, Mifepristone], the “effect of receptor antagonist” value in series [2] was “negated; also recorded: completely abrogate”.
Same read-out and setting: the value for `N#Cc1ccc([C@H]2CCCC[C@H]2O)cc1C(F)(F)F` [PF998425] was “did not alter”.
